Literature values as cited in PubChem BioAssay AID1259409 (Chemical Carcinogenesis Research Information System (CCRIS), 2018).

Tested on: rodent chemically induced tumor inhibition, incidence and multiplicity
Experiment: CCRIS tumor inhibitor studies
Conditions: Carcinogen: N-METHYL-N-NITROSOUREA, 684-93-5, Route [Inhibitor]: ORAL, Species: HAMSTER, Strain/Sex: SYRIAN/MALE, Target Tissue: Type of Lesion: TRACHEA: TUMOR, Promoter: NONE USED

COc1cc(C)c(/C=C/C(C)=C/C=C/C(C)=C/C(=O)O)c(C)c1C
tumour outcome (control, treated, inhibition, significance) (Dose [Inhibitor]: 75 MG/KG DIET DAILY FOR 55 WK STARTING 1 WK AFTER LAST CARCINOGEN EXPOSURE (STUDY DURATION: 65 WK), Dose [Carcinogen]: 1% FOR 7 SECONDS 2/WK FOR 9 WK): 30/37 (81%), 27/37 (73%), 10%, not significant | tumour outcome (control, treated, inhibition, significance) (Dose [Inhibitor]: 150 MG/KG DIET DAILY FOR 55 WK STARTING 1 WK AFTER LAST CARCINOGEN EXPOSURE (STUDY DURATION: 65 WK), Dose [Carcinogen]: 1% FOR 7 SECONDS 2/WK FOR 9 WK): 30/37 (81%), 24/38 (63%), 22%, not significant | tumour outcome (control, treated, inhibition, significance) (Dose [Inhibitor]: 150 MG/KG DIET DAILY FOR 55 WK STARTING 1 WK AFTER LAST CARCINOGEN EXPOSURE (STUDY DURATION: 66 WK), Dose [Carcinogen]: 1% FOR 7 SECONDS 2/WK FOR 10 WK): 32/38 (84%), 34/39 (87%), -4%, not significant | tumour outcome (control, treated, inhibition, significance) (Dose [Inhibitor]: 150 MG/KG DIET DAILY FOR 55 WK STARTING 1 WK AFTER LAST CARCINOGEN EXPOSURE (STUDY DURATION: 67.5 WK), Dose [Carcinogen]: 1% FOR 7 SECONDS 2/WK FOR 11.5 WK): 24/40 (60%), 24/40 (60%), 0%, not significant
